In brackets after ≈: the same amount, converted by molar mass. Like-named read-outs stand apart in the source and are kept apart here.
Key:
Assay type in all cases: cell-based
[1] = test system: Pseudomonas aeruginosa X48; test: MIC by standard agar dilution test; conditions: X48, read-out: Minimum Inhibitory Concentration
[2] = test system: Pseudomonas aeruginosa X528; test: MIC by standard agar dilution test; conditions: X528, read-out: Minimum Inhibitory Concentration
[3] = test system: Pseudomonas aeruginosa X239; test: MIC by standard agar dilution test
[4] = test system: Pseudomonas aeruginosa Ps9; test: MIC by standard agar dilution test; conditions: PS9, read-out: Minimum Inhibitory Concentration
[5] = test system: Pseudomonas aeruginosa Ps15; test: MIC by standard agar dilution test; conditions: PS15, read-out: Minimum Inhibitory Concentration
[6] = test system: Pseudomonas aeruginosa Ps25; test: MIC by standard agar dilution test; conditions: PS25, read-out: Minimum Inhibitory Concentration
[7] = test system: Pseudomonas aeruginosa 4276; test: MIC by standard agar dilution test; conditions: Pseudomonas aeruginosa, 4276, read-out: Minimum Inhibitory Concentration
[8] = test system: Pseudomonas aeruginosa PI23; test: MIC by standard agar dilution test; conditions: PI23, read-out: Minimum Inhibitory Concentration
[9] = test system: Pseudomonas aeruginosa SF-2; test: MIC by standard agar dilution test; conditions: SF2, read-out: Minimum Inhibitory Concentration
Serratia marcescens SE2 = test: MIC by standard agar dilution test
Serratia marcescens X99 = test: MIC by standard agar dilution test
Serratia marcescens SE3 = test: MIC by standard agar dilution test
[10] = test system: Enterobacter aerogenes EB6; test: MIC by standard agar dilution test; conditions: Klebsiella aerogenes
[11] = test system: Enterobacter cloacae EN453; test: MIC by standard agar dilution test
[12] = test system: Enterobacter cloacae EB24; test: MIC by standard agar dilution test
Proteus morganii PR1 = test: MIC by standard agar dilution test; conditions: Morganella morganii
Proteus morganii PR2 = test: MIC by standard agar dilution test; conditions: Morganella morganii
Proteus inconstans PV25 = test: MIC by standard agar dilution test; conditions: Providencia alcalifaciens
[13] = test system: Klebsiella pneumoniae KL2; test: MIC by standard agar dilution test
Proteus morganii PR15 = test: MIC by standard agar dilution test; conditions: Morganella morganii, PR15; Table II; agar dilution; read-out: Minimum Inhibitory Concentration
[14] = test system: Klebsiella pneumoniae KL14; test: MIC by standard agar dilution test; conditions: KL14, read-out: Minimum Inhibitory Concentration
[15] = test system: Staphylococcus aureus 3055; test: MIC by standard agar dilution test; conditions: Staphylococcus aureus, 3055; Table II; agar dilution; read-out: Minimum Inhibitory Concentration
Erwinia amylovora = test: MIC by standard agar dilution test; conditions: Table II, read-out: Minimum Inhibitory Concentration
Description: (§1) The antibacterial activity of the antibiotic compounds of this invention is illustrated by the following in vitro and in vivo test data obtained with representative compounds. In Tables I and II the minimum inhibitory concentration (MIC) for representative compounds against a wide range of gram-positive and gram-negative bacteria is presented. The MIC values were obtained by the standard agar dilution test.

[16] = test system: Staphylococcus aureus 3074; test: MIC by standard agar dilution test; conditions: Table II, read-out: Minimum Inhibitory Concentration
Description: as §1

[17] = test system: Streptococcus faecalis X66; test: MIC by standard agar dilution test; conditions: Enterococcus faecalis, X66; Table II; agar dilution; read-out: Minimum Inhibitory Concentration
Salmonella typhosa SA12 = test: MIC by standard agar dilution test; conditions: Salmonella enterica, read-out: Minimum Inhibitory Concentration
Escherichia coli EC14 = test: MIC by standard agar dilution test; conditions: EC14, Table II, agar dilution, read-out: Minimum Inhibitory Concentration
[18] = test system: Citrobacter freundii CF17; test: MIC by standard agar dilution test; conditions: CF17, Table II, agar dilution, read-out: Minimum Inhibitory Concentration
[19] = test system: Bordetella bronchiseptica 16; test: MIC by standard agar dilution test; conditions: Bordetella bronchiseptica, 16, read-out: Minimum Inhibitory Concentration
Salmonella typhimurium = test: MIC by standard agar dilution test; conditions: Salmonella enterica, Table II, agar dilution, read-out: Minimum Inhibitory Concentration
[20] = test system: Pseudomonas solanacearum X185; test: microbe, parasite or virus in culture; conditions: Ralstonia solanacearum, X185, read-out: Minimum Inhibitory Concentration
[21] = X239, read-out: Minimum Inhibitory Concentration, Table 1

Structure (SMILES): CN[C@@H]1[C@@H](O[C@H]2O[C@H](CO[Si](C)(C)C(C)(C)C)[C@@H](N)[C@H](O)[C@H]2O)O[C@H]2C[C@@H](N)[C@@H](O[C@H]3[C@H](O)[C@@H](O)[C@H](N)C[C@@H]3N)O[C@@H]2[C@@H]1O [Test Compound 6, 6"-O-(tert-Butyldimethylsilyl)Apramycin]
- MIC [1]: > 128 µg/mL
- MIC [2]: 64 µg/mL (≈ 97.9 µM)
- MIC [3, 21]: 128 µg/mL (≈ 196 µM)
- MIC [4]: > 128 µg/mL
- MIC [5]: 128 µg/mL (≈ 196 µM)
- MIC [6]: 128 µg/mL (≈ 196 µM)
- MIC [7]: 128 µg/mL (≈ 196 µM)
- MIC [8]: > 128 µg/mL
- MIC [9]: 128 µg/mL (≈ 196 µM)
- MIC (Serratia marcescens SE2; SE2, read-out: Minimum Inhibitory Concentration): 64 µg/mL (≈ 97.9 µM)
- MIC (Serratia marcescens X99; X99, read-out: Minimum Inhibitory Concentration): 32 µg/mL (≈ 48.9 µM)
- MIC (Serratia marcescens SE3; SE3, read-out: Minimum Inhibitory Concentration, Table 1): 64 µg/mL (≈ 97.9 µM)
- MIC ([10]; EB6, read-out: Minimum Inhibitory Concentration): 32 µg/mL (≈ 48.9 µM)
- MIC ([11]; EN453, read-out: Minimum Inhibitory Concentration): 32 µg/mL (≈ 48.9 µM)
- MIC ([12]; EB24, read-out: Minimum Inhibitory Concentration): 16 µg/mL (≈ 24.5 µM)
- MIC (Proteus morganii PR1; PR1, read-out: Minimum Inhibitory Concentration): 32 µg/mL (≈ 48.9 µM)
- MIC (Proteus morganii PR2; PR2, read-out: Minimum Inhibitory Concentration): 64 µg/mL (≈ 97.9 µM)
- MIC (Proteus inconstans PV25; PV25, read-out: Minimum Inhibitory Concentration): 16 µg/mL (≈ 24.5 µM)
- MIC ([13]; KL2, read-out: Minimum Inhibitory Concentration): 32 µg/mL (≈ 48.9 µM)

Structure (SMILES): CN[C@@H]1[C@@H](O[C@H]2O[C@H](COS(=O)(=O)c3ccc(C)cc3)[C@@H](N)[C@H](O)[C@H]2O)O[C@H]2C[C@@H](N)[C@@H](O[C@H]3[C@H](O)[C@@H](O)[C@H](N)C[C@@H]3N)O[C@@H]2[C@@H]1O [Test Compound 2, 6"-O-(Para-toluenesulfonyl)apramycin]
- MIC [1]: > 128 µg/mL
- MIC [2]: > 128 µg/mL
- MIC ([3]; X239, Table II, read-out: Minimum Inhibitory Concentration): 16 µg/mL (≈ 23.1 µM)
- MIC [3, 21]: > 128 µg/mL
- MIC [4]: > 128 µg/mL
- MIC [5]: > 128 µg/mL
- MIC [6]: > 128 µg/mL
- MIC [7]: > 128 µg/mL
- MIC [8]: > 128 µg/mL
- MIC [9]: > 128 µg/mL
- MIC (Serratia marcescens SE2; SE2, Table 1, agar dilution, read-out: Minimum Inhibitory Concentration): 16 µg/mL (≈ 23.1 µM)
- MIC (Serratia marcescens X99; X99, Table 1, agar dilution, read-out: Minimum Inhibitory Concentration): 16 µg/mL (≈ 23.1 µM)
- MIC (Serratia marcescens SE3; SE3, Table 1, read-out: Minimum Inhibitory Concentration): 16 µg/mL (≈ 23.1 µM)
- MIC (Serratia marcescens SE3; SE3, read-out: Minimum Inhibitory Concentration, Table II): 32 µg/mL (≈ 46.1 µM)
- MIC ([10]; EB6, Table 1, agar dilution, read-out: Minimum Inhibitory Concentration): 16 µg/mL (≈ 23.1 µM)
- MIC ([11]; EN453, Table 1, agar dilution, read-out: Minimum Inhibitory Concentration): 16 µg/mL (≈ 23.1 µM)
- MIC ([12]; EB24, Table 1, agar dilution, read-out: Minimum Inhibitory Concentration): 16 µg/mL (≈ 23.1 µM)
- MIC (Proteus morganii PR1; PR1, Table 1, agar dilution, read-out: Minimum Inhibitory Concentration): 16 µg/mL (≈ 23.1 µM)
- MIC (Proteus morganii PR2; PR2, Table 1, agar dilution, read-out: Minimum Inhibitory Concentration): 16 µg/mL (≈ 23.1 µM)
- MIC (Proteus inconstans PV25; PV25, Table 1, agar dilution, read-out: Minimum Inhibitory Concentration): 16 µg/mL (≈ 23.1 µM)
- MIC ([13]; KL2, Table 1, agar dilution, read-out: Minimum Inhibitory Concentration): 16 µg/mL (≈ 23.1 µM)
- MIC (Proteus morganii PR15): 16 µg/mL (≈ 23.1 µM)
- MIC [14]: 2 µg/mL (≈ 2.88 µM)
- MIC [15]: < 0.5 µg/mL
- MIC (Erwinia amylovora): 2 µg/mL (≈ 2.88 µM)
- MIC [16]: 2 µg/mL (≈ 2.88 µM)
- MIC [17]: 16 µg/mL (≈ 23.1 µM)
- MIC (Salmonella typhosa SA12): 1 µg/mL (≈ 1.44 µM)
- MIC (Escherichia coli EC14): 4 µg/mL (≈ 5.77 µM)
- MIC [18]: 4 µg/mL (≈ 5.77 µM)
- MIC [19]: 64 µg/mL (≈ 92.2 µM)
- MIC (Salmonella typhimurium): 4 µg/mL (≈ 5.77 µM)
- MIC [20]: 1 µg/mL (≈ 1.44 µM)

Reference: patent US4379917A, “6"-(Substituted)-apramycin antibiotic derivatives and intermediates and starting materials therefor” (Eli Lilly and Company, priority 1981, dated 1983)
